ChEMBL document CHEMBL4819014, “Design, synthesis and biological evaluation of imidazole and triazole-based carbamates as novel aromatase inhibitors” (Eur J Med Chem, 2021)
One block for each compound: values may come before it. The source made the active and inactive calls. The calls are words filed in the database; no cut-off is given here.

What was measured:
[1] = molecular target: T1, CYP19A (aromatase) (Homo sapiens, UniProt P11511); assay: Inhibition of human CYP19A at 1 uM measured every 1 min for 60 mins by flourimetric assay
T1 sequence (P11511 whole entry): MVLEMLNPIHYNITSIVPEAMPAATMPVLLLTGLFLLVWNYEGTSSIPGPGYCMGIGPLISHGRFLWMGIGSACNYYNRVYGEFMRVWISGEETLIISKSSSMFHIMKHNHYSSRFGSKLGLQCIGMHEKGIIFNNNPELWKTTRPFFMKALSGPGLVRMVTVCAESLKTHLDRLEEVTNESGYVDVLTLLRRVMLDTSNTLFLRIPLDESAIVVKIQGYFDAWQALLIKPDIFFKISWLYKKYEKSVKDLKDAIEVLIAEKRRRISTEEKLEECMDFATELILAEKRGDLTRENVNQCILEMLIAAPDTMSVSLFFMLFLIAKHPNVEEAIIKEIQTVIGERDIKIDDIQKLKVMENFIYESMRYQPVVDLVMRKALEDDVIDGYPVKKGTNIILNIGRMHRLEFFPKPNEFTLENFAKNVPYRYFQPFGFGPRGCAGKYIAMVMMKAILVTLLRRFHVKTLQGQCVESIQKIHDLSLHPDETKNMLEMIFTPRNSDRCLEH

[2] = molecular target: T2, Aromatase (Homo sapiens, UniProt P11511); assay: Inhibition of human CYP19A measured every 1 min for 60 mins by flourimetric assay
T2 sequence (P11511 whole entry): T1 sequence (P11511 whole entry)

[3] = test system: MCF7; assay: Cytotoxicity against human MCF7 cells assessed as metabolic activity at 50 uM measured after 72 hrs by MTT assay; assay type: functional
[4] = test system: MCF7; assay: Cytotoxicity against human MCF7 cells assessed as metabolic activity at 10 to 250 uM measured after 24 hrs by MTT assay; assay type: functional; conditions: dose 10-250 µM
[5] = test system: MCF7; assay: Cytotoxicity against human MCF7 cells assessed as metabolic activity measured after 48 hrs by MTT assay; assay type: functional, cell-based; conditions: dose 10-250 µM
[6] = test system: MCF7; assay: Cytotoxicity against human MCF7 cells assessed as lactate dehydrogenase activity measured after 24 hrs by microplate reader method relative to control; assay type: functional
[7] = test system: MCF7; assay: Induction of cell cycle arrest in human MCF7 cells assessed as accumulation of cells in S phase measured after 24 hrs by PI staining based flow cytometry method; assay type: functional; conditions: dose 10-250 µM
[8] = test system: MCF7; assay: Induction of cell cycle arrest in human MCF7 cells assessed as accumulation of cells in G2/M phase at 100 to 250 uM measured after 24 hrs by PI staining based flow cytometry method; assay type: functional; conditions: dose 100-250 µM
[9] = test system: MCF7; assay: Cytotoxicity against human MCF7 cells assessed as lactate dehydrogenase activity at 250 uM measured after 24 hrs by microplate reader method relative to control; assay type: functional
[10] = test system: MCF7; assay: Induction of cell cycle arrest in human MCF7 cells assessed as decrease in accumulation of cells in G1 phase at 100 to 250 uM measured after 24 hrs by PI staining based flow cytometry method; assay type: functional; conditions: dose 100-250 µM
[11] = test system: MCF7; assay: Cytotoxicity against human MCF7 cells assessed as metabolic activity at 10 uM measured after 24 hrs by MTT assay; assay type: functional
[12] = test system: MCF7; assay: Cytotoxicity against human MCF7 cells assessed as metabolic activity at 250 uM measured after 48 hrs by MTT assay; assay type: functional
[13] = test system: MCF7; assay: Cytotoxicity against human MCF7 cells assessed as metabolic activity at 10 uM measured after 72 hrs by MTT assay; assay type: functional
[14] = test system: MCF7; assay: Cytotoxicity against human MCF7 cells assessed as metabolic activity at 25 uM measured after 72 hrs by MTT assay; assay type: functional
[15] = test system: MCF7; assay: Cytotoxicity against human MCF7 cells assessed as metabolic activity at 100 uM measured after 48 hrs by MTT assay; assay type: functional

Compound: O=C(Nc1ccc(Cl)cc1)OC(Cn1ccnc1)c1ccccc1 (stereo not drawn)
inhibition at 1 h, 1 µM [1]: 62%

Compound: O=C(Nc1ccccc1)OC(COc1ccc(Cl)cc1)Cn1cncn1 (stereo not drawn)
inhibition at 1 h, 1 µM [1]: 46%

Compound: O=C(Nc1ccccc1)OC(Cn1ccnc1)c1ccccc1 (stereo not drawn)
inhibition at 1 h, 1 µM [1]: 61%

Compound: O=C(NCc1ccccc1)OC(Cn1ccnc1)c1ccccc1 (stereo not drawn)
inhibition at 1 h, 1 µM [1]: 81% | IC50 [2]: 820 nM | Activity [11]: 43.67% | Activity [12]: 30.75% | Activity [13]: 50.16% | Activity [14]: 55.06% | Activity [3]: 46.7% | Activity [15]: 10.39% | fold change (FC) [6]: 4 | Activity [7]: Dose-Dependent Effect | fold change (FC) [9]: 4.8

Continued, in another order:

inhibition at 1 h, 1 µM [1]: 25%
Compound: COc1ccc(NC(=O)OC(COc2ccccc2)Cn2ccnc2)c(OC)c1 (stereo not drawn)

inhibition at 1 h, 1 µM [1]: 27%
Compound: O=C(Nc1ccccc1)OC(COc1ccccc1)Cn1ccnc1 (stereo not drawn)

inhibition at 1 h, 1 µM [1]: 72% | IC50 [2]: 860 nM
Compound: O=C(Nc1ccc(Cl)cc1)OC(COc1ccccc1)Cn1ccnc1 (stereo not drawn)
Activity [3]: 25.18% | Activity [4]: 50% | Activity [5]: Dose-Dependent Effect | fold change (FC) [6]: 4 | Activity [7]: Dose-Dependent Effect | Activity [8]: Active | fold change (FC) [9]: 4.8 | Activity [10]: Active

inhibition at 1 h, 1 µM [1]: 61%
Compound: COc1ccc(NC(=O)OC(COc2ccccc2)Cn2ccnc2)cc1 (stereo not drawn)

inhibition at 1 h, 1 µM [1]: 49%
Compound: COc1ccc(OCC(Cn2cncn2)OC(=O)Nc2ccc(Cl)cc2)cc1 (stereo not drawn)
